Consider seven molecules from BindingDB's records for doi:10.1021/jm9811054 (Merck, 2000).

The target of this experiment is 5-HT1D receptor (Bos taurus). The experiment can be described thus: Binding affinity towards 5-hydroxytryptamine 1D receptor in calf striatum using [3H]5-HT as radio-ligand.

Each structure is given as a SMILES string.

Usually IC50 stands for the midpoint of a concentration-inhibition curve. Read a high IC50 as weaker potency in that assay. As to `COc1ccc(NC(=O)N2CCN(CCCCc3c[nH]c4ccc(F)cc34)CC2)cc1N1CCN(C)CC1` [4-[4-(5-Fluoro-1H-indol-3-yl)-butyl]-piperazine-1-carboxylic acid [4-methoxy-3-(4-methyl-piperazin-1-yl)-phenyl]-amide], the half-maximal inhibitory concentration (IC50) amounted to 367 nM. For `COc1ccc(NC(=O)N2CCC(c3c[nH]c4ccc(C(N)=O)cc34)CC2)cc1N1CCN(C)CC1` [3-{1-[4-Methoxy-3-(4-methyl-piperazin-1-yl)-phenylcarbamoyl]-piperidin-4-yl}-1H-indole-5-carboxylic acid amide] the value was 100 nM; for `COc1ccc(NC(=O)N2CCC(c3c[nH]c4cc(F)ccc34)CC2)cc1N1CCN(C)CC1` [4-(6-Fluoro-1H-indol-3-yl)-piperidine-1-carboxylic acid [4-methoxy-3-(4-methyl-piperazin-1-yl)-phenyl]-amide], 200 nM; for `COc1ccc(NC(=O)NCCc2c[nH]c3ccc(F)cc23)cc1N1CCN(C)CC1` [1-[2-(5-Fluoro-1H-indol-3-yl)-ethyl]-3-[4-methoxy-3-(4-methyl-piperazin-1-yl)-phenyl]-urea], 167 nM. In the case of `COc1ccc(NC(=O)N2CCC(c3c[nH]c4ccc(C#N)cc34)CC2)cc1N1CCN(C)CC1` [4-(5-Cyano-1H-indol-3-yl)-piperidine-1-carboxylic acid [4-methoxy-3-(4-methyl-piperazin-1-yl)-phenyl]-amide], the IC50 came to 400 nM. For `COc1ccc(NC(=O)NCCN2CCC(c3c[nH]c4cc(F)ccc34)CC2)cc1OCCN(C)C` [1-[3-(2-Dimethylamino-ethoxy)-4-methoxy-phenyl]-3-{2-[4-(6-fluoro-1H-indol-3-yl)-piperidin-1-yl]-ethyl}-urea] the value was 433 nM.

`COc1ccc(NC(=O)N2CCc3[nH]c4ccc(F)cc4c3C2)cc1N1CCN(C)CC1` [8-Fluoro-1,3,4,5-tetrahydro-pyrido[4,3-b]indole-2-carboxylic acid [4-methoxy-3-(4-methyl-piperazin-1-yl)-phenyl]-amide]: the half-inhibitory concentration (IC50) is 667 nM.
